Results published in PubChem BioAssay AID651555 (The Scripps Research Institute Molecular Screening Center, 2012).
Active and inactive are the calls of the source.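 The calls were made as follows: active = compounds whose half-maximal activation potency EC50 is 10 µM or stronger; inactive = the rest.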

These molecules were tested against Melanocortin receptor 4 (Homo sapiens) (UniProt P32245) (assay: activators of MC4R arrestin recruitment – cell-based, luminescence, agonists, late-stage follow-up (AID 651555)). Details: U2OS MC4R beta-arrestin recruitment, beta-gal luminescence.
Chain of Melanocortin receptor 4 (Homo sapiens) (P32245 whole entry, looked up): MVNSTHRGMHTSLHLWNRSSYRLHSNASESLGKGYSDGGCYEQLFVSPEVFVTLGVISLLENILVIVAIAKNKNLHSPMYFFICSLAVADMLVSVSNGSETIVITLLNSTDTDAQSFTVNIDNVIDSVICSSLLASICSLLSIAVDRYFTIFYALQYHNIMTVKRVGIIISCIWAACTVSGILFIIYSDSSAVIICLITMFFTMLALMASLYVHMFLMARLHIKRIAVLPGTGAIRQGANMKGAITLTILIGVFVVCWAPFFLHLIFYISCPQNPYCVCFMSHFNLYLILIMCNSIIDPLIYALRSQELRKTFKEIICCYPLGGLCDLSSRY
With `COc1ccccc1C1(CCNC(C)c2cccs2)CCOC(C(C)C)C1` (stereo not drawn) the EC50 was > 50 µM (inactive).
For `CCC1CCCCN1S(=O)(=O)c1ccc(NC(=O)c2ccccc2)cc1` (stereo not drawn), the EC50 was “inactive”.
With `COc1ccc(N(C(C)=O)C(C(=O)NC2CCCC2)c2cccs2)cc1OC` (stereo not drawn) the EC50 was > 50 µM (inactive).
In the case of `Cc1ccccc1OCC(O)CN1CCC(CN2C(=O)c3cccc4cccc(c34)C2=O)CC1` (stereo not drawn), the EC50 is reported as > 50 µM (inactive).
For `CC(=O)c1ccc(Nc2nc3ccc(C(=O)N(CCC(C)C)CCC(C)C)cc3n2CCCN2CCCCC2)cc1`, the EC50 was > 50 µM (inactive).
In the case of `CCC1CCCCN1S(=O)(=O)c1ccc(NC(=O)c2cccc(S(C)(=O)=O)c2)cc1` (stereo not drawn), the EC50 is reported as > 50 µM (inactive).
In the case of `CC(=O)Nc1cc(-c2ccc(N(C)C)cc2)cn2c(-c3ccc(F)c(F)c3)cnc12`, the EC50 is reported as > 50 µM (inactive).
For `O=C1c2cccc3cccc(c23)C(=O)N1CC1CCN(CC(O)COc2ccc3ccccc3c2)CC1` (stereo not drawn), the EC50 was “inactive”.
For `Cc1ccccc1CN1Cc2cnnn2-c2ccccc2C1C#N` (stereo not drawn), the EC50 was > 50 µM (inactive).
In the case of `CC(=O)Nc1cc(-c2ccc(N(C)C)cc2)cn2c(-c3ccc(F)cc3)cnc12`, the EC50 is reported as > 50 µM (inactive).
With `CCC1CCCCN1S(=O)(=O)c1ccc(NC(=O)c2nc(S(C)(=O)=O)ncc2Cl)cc1` (stereo not drawn) the EC50 was > 50 µM (inactive).
`OC(COc1ccc2ccccc2c1)CN1CCC(Nc2nc3ccccc3o2)CC1` (stereo not drawn) was tested, and the EC50 was > 50 µM (inactive).
In the case of `O=C1c2cccc3cccc(c23)C(=O)N1CC1CCN(CC(O)COc2ccccc2)CC1` (stereo not drawn), the EC50 is reported as > 50 µM (inactive).
`CNC(=O)c1cc(Oc2ccc(NCC(=O)Nc3ccc(Cl)c(C(F)(F)F)c3)cc2)ccn1` was tested, and the EC50 was > 50 µM (inactive).
With `CC(=O)Nc1cc(-c2ccc(N(C)C)cc2)cn2c(-c3ccc(F)c(Cl)c3)cnc12` the EC50 was > 50 µM (inactive).
With `C#CC(=O)N(c1ccc(OC)c(OC)c1)C(C(=O)NC1CCCC1)c1cccs1` (stereo not drawn) the EC50 was > 50 µM (inactive).
With `CC1CCCCN1S(=O)(=O)c1ccc(NC(=O)c2nc(S(C)(=O)=O)ncc2Cl)cc1` (stereo not drawn) the EC50 was > 50 µM (inactive).
In the case of `CC(=O)N(C)c1cc(-c2ccc(N(C)C)cc2)cn2c(-c3ccc(F)c(Cl)c3)cnc12`, the EC50 is reported as > 50 µM (inactive).
In the case of `CCC1CCCCN1S(=O)(=O)c1ccc(NC(=O)c2ccnc(SC)n2)cc1` (stereo not drawn), the EC50 is reported as > 50 µM (inactive).
With `CCOC(=O)C1(c2ccccc2)CCN(CC(O)COc2ccc3ccccc3c2)CC1` (stereo not drawn) the EC50 was > 50 µM (inactive).
In the case of `CNC(=O)c1cc(Oc2ccc(NC(=O)CNc3ccc(Cl)c(C(F)(F)F)c3)cc2)ccn1`, the EC50 is reported as > 50 µM (inactive).
`CNC(=O)c1cc(Oc2ccc(NC(=O)Nc3ccc(Cl)c(C(F)(F)F)c3)cc2)ccn1` was tested, and the EC50 was > 50 µM (inactive).
`O=c1[nH]c2ccccc2n1C1CCN(CC(O)COc2ccc3ccccc3c2)CC1` (stereo not drawn) was tested, and the EC50 was > 50 µM (inactive).
